From patent publication US9226506B2, “Methods of weed control in chicory” (Dow AgroSciences LLC, priority 2013, dated 2016)

Columns and labels:
[1] = system: Coronopus didymus (lesser swinecress), COPDI; test: Field trial, post-emergence weed control in chicory; type: in vivo; details: 2 trials, 30 days after last application
Method: (§1) Field trials were conducted in Northern France and Belgium, both of which are major areas for root chicory and whitloof chicory production. Trials were conducted in accordance with EPPO standard PP 1/99(3) entitled “Weeds in Roots Vegetables,” PP 1/152(4) entitled “Design and Analysis of Efficacy Evaluation Trials,” PP 1/135(3) entitled “Phytotoxic Assessment,” and PP 1/181(4) entitled “Conduct and Reporting of Efficacy Evaluation Trials Including Good Experimental Practice,” all of which are incorporated herein by reference in their entirety.
(§2) Application to all field trials was made using a small plot precision sprayer operating at between 160-400 kilopascals (kPa) pressure, delivering a spray volume of 150-400 liters per hectare (L/ha). Nozzles were of a flat fan type. Trial plot size ranged from 4.5×2.5 square meters (m^2) to 10.5×2.5 m^2. Plots were replicated 3 or 4 times and were arranged in a randomized block design within each trial. All trials received a pre-emergence application of BONALAN® at 6 L/ha (benfluralin; 180 grams active ingredient per liter (g ai/L); commercially available from Dow AgroSciences LLC) with incorporation to prevent the emergence of grasses which could complicate the assessment of broadleaf control.
(§3) In whitloof chicory (Cichorium intybus), treatments were evaluated which included either two or three post-emergence applications of herbicide. Multiple applications of herbicide were evaluated for their ability to control weed emergence during the extended period of time required for chicory cultivation. Trials included different combinations of application rate and application timing. Broadcast applications were made from May to July, covering a range of possible application timings. Penoxulam was applied at a maximum total rate of 15 g/ha per season, applied in two or three applications with a minimum of seven days between applications. Treatment with penoxsulam involved application of either BOA® or VIPER® (2.14% weight per weight (w/w) oil dispersions of penoxsulam commercially available from Dow AgroSciences LLC). Trials were also conducted using another ALS mode-of-action herbicide (i.e., the sulfonylurea triflusulfuron-methyl). Triflusulfuron-methyl was applied at a maximum total rate of 30 g/ha per season, applied in two or three applications with a minimum of seven days between applications. Treatment with triflusulfuron-methyl involved application of SAFARI® (triflusulfuron-methyl; commercially available from DuPont Crop Protection).
(§4) Prior to treatment application, assessments of weed populations (number of plants per m^2) were carried out using a quadrant square and an appropriate number of sampling points.
(§5) 1) Visual rating in percent of the overall volume reduction of vegetation for each species compared to the nearest untreated plot (Plant/Control/% visual; 0%=no control; 100%=all weeds dead). Assessments of this type were performed by Dow AgroSciences LLC in France.
(§6) Assessments of weed control were carried out at 14, 28, 56 and 84 days or longer after each application timing (DAAA=days after application A, DAAB=days after application B or DAAC=days after application C).

[2] = system: Matricaria recutita (wild chamomile), MATCH; test: as above; type: in vivo; details: 2-3 trials (number of trials in parentheses in cell), 30 days after last application
Method: as §1, §2, §3, §4, §5, §6

[3] = system: Senecio vulgaris (common groundsel), SENVU; test: as above; type: in vivo; details: 1 trial, 30 days after last application
Method: as §1, §2, §3, §4, §5, §6

[4] = system: chicory (varieties Ecrine, Hermès); test: Chicory leaf development after post-emergence applications; set-up: species or system Cichorium intybus; details: in vivo
Method: as §1
(§7) Application to all field trials was made using a small plot precision sprayer operating at between 160-400 kilopascals (kPa) pressure, delivering a spray volume of 150-400 liters per hectare (L/ha). Nozzles were of a flat fan type. Trial plot size ranged from 4.5×2.5 square meters (m^2) to 10.5×2.5 m^2. Plots were replicated 3 or 4 times and were arranged in a randomized block design within each trial. […]
(§8) In whitloof chicory (Cichorium intybus), treatments were evaluated which included either two or three post-emergence applications of herbicide. Multiple applications of herbicide were evaluated for their ability to control weed emergence during the extended period of time required for chicory cultivation. […]

[5] = system: chicory (varieties Ecrine, Hermès); test: Chicory root development (number of roots) after post-emergence applications; type: in vivo, Cichorium intybus; details: treatment with penoxsulam in chicory field trials
Method: Field trials were conducted in Northern France and Belgium, both of which are major areas for root chicory and whitloof chicory production. Trials were conducted in accordance with EPPO standard PP 1/99(3) entitled “Weeds in Roots Vegetables,” PP 1/152(4) entitled “Design and Analysis of Efficacy Evaluation Trials,” PP 1/135(3) entitled “Phytotoxic Assessment,” and PP 1/181(4) entitled “Conduct and Reporting of Efficacy Evaluation Trials Including Good Experimental Practice,” all of which are incorporated herein by reference in their entirety. […]
as §8
Harvest was carried out 171 DAAC on 4 rows per plot. After harvest, the roots were counted and weighted, and the percent of roots usable for forcing was measured. […] The brut yield (total weight of chicons produced; marketable+non-marketable), net yield (weight of marketable chicons produced) and best class yield (Extra+1=weight of Extra and First Class chicons produced) were measured (in kilograms per 10 square meters (kg/10 m^2)).

[6] = system: undesirable vegetation; test: Weed control field trials, overall statement; type: in vivo; details: applied post-emergence to the crop and weeds
Method: as §1
as §7, with “m^2.” for “m^2. Plots were replicated 3 or 4 times and were arranged in a randomized block design within each trial.”
as §8
3) Following treatments, the remaining plants were weighed to determine the mass per plant (expressed as g/plant) one month after the last pesticide application. […]

[7] = system: chicory; set-up: species or system Cichorium intybus; details: in vivo
Method: as §1, §7, §8

[8] = 3 applications 3.73/3.73/3.73 g ai/ha

COc1cnc(OC)n2nc(NS(=O)(=O)c3c(OCC(F)F)cccc3C(F)(F)F)nc12 [Penoxsulam]
% Visual Weed Control ([1]; 2 applications 5.6/5.6 g ai/ha): 92.4% | % Visual Weed Control ([1]; 2 applications 7.5/7.5 g ai/ha): 96.25% | % Visual Weed Control [1, 8]: 90.15% | % Visual Weed Control ([1]; 3 applications 5/5/5 g ai/ha): 93.25% | % Visual Weed Control ([2]; 2 applications 5.6/5.6 g ai/ha): 93 (2) % | % Visual Weed Control ([2]; 2 applications 7.5/7.5 g ai/ha): 93.9 (3) % | % Visual Weed Control [2, 8]: 91.4 (2) % | % Visual Weed Control ([2]; 3 applications 5/5/5 g ai/ha): 97.2 (3) % | % Visual Weed Control ([3]; 2 applications 5.6/5.6 g ai/ha): 50% | % Visual Weed Control ([3]; 2 applications 7.5/7.5 g ai/ha): 100% | % Visual Weed Control [3, 8]: 60% | % Visual Weed Control ([3]; 3 applications 5/5/5 g ai/ha): 100% | Average number of leaves (measured 21 DAAC) Average [4]: 7 a | effect on root yield [5]: no deleterious effect on root yield | control of undesirable vegetation [6]: good control of undesirable vegetation | crop tolerance [7]: commercially acceptable crop tolerance | visible crop injury [7]: some visible crop injury
